Measured values: US10047083B2, “Dihydropyrimidinoisoquinolinones and pharmaceutical compositions thereof for the treatment of inflammatory disorders” (GALAPAGOS NV, priority 2011, dated 2018)

Target: T1, GPR84 (Homo sapiens, UniProt Q9NQS5)
T1 construct: expressed in transfected cells; membranes used
Assay: GTPγS binding assay (GPR84)
Type: biochemical
Conditions: membranes from stable cell line over expressing GPR84; 3,3′ di indolylmethane at EC80
Experimental: 1.1. Cell Based Assay: GTp-γS Binding Assay.
The following assay can be used for determination of GPR84 activation.
The assay is performed in a 96 well plate where the following reagents are added. […] In a last step, 30 μL of a mixture consisting of membranes-GTPγS-SpA beads is added [mixture consists of 20 μg/well membranes derived from stable cell line over expressing GPR84 (membranes are pre-incubated with 0.1 μM GDP for 15 min at 4° C.), 0.1 nM [^35S]GTPγS (Perkin Elmer, NEG030) and 0.5 mg/well PVT-WGA SpA beads (Perkin Elmer, RPNQ0001)]. All components are diluted in assay buffer containing 20 mM HEPES pH 7.4; 5 mM MgCl2; 250 mM NaCl; 0.05% BSA; 75 ug/mL saponin. Reactions are incubated for 90 min at room temperature followed by centrifugation at 2000 rpm during 15 min. Plates are read on a Topcount reader (Perkin Elmer) immediately after centrifugation (readout time, 1 min/well).

T1 sequence (Q9NQS5 whole entry): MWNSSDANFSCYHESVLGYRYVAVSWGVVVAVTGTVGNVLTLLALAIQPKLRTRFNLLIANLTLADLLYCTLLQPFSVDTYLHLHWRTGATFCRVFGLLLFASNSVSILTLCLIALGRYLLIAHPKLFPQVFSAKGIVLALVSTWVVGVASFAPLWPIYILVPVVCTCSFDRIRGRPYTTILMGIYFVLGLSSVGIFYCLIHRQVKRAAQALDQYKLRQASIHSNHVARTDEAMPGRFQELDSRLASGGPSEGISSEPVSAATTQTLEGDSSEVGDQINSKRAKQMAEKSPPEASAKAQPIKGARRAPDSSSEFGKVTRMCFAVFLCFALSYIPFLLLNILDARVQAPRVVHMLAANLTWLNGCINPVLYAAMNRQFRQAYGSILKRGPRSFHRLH

| Compound | IC50 |
| --- | --- |
| Cc1cc(COc2ccc3c(c2)CCn2c-3cc(OCC3COCCO3)nc2=O)on1 (stereo not drawn) [Compound 54, 2-([1,4]dioxan-2-ylmethoxy)-9-(3-methyl-isoxazol-5-ylmethoxy)-6,7-dihydro-pyrimido[6,1-a]isoquinolin-4-one] | 101 to 500 nM |
| Cc1ccc(-c2ccc3c(c2)CCn2c-3cc(OCC3COCCO3)nc2=O)o1 (stereo not drawn) [Compound 97, 2-([1,4]dioxan-2-ylmethoxy)-9-(5-methyl-furan-2-yl)-6,7-dihydro-pyrimido[6,1-a]isoquinolin-4-one] | 101 to 500 nM |
| N#Cc1ccc(-c2ccc3c(c2)CCn2c-3cc(OCC3COCCO3)nc2=O)cn1 (stereo not drawn) [Compound 59, 5-[2-([1,4]dioxan-2-ylmethoxy)-4-oxo-6,7-dihydro-4H-pyrimido[6,1-a]isoquinolin-9-yl]-pyridine-2-carbonitrile] | 501 to 1000 nM |
| O=c1nc(OC[C@@H]2COCCO2)cc2n1CCc1cc(NCC3CCCCC3)ccc1-2 [Compound 153, 9-(cyclohexylmethyl-amino)-2-((S)-1-[1,4]dioxan-2-ylmethoxy)-6,7-dihydro-pyrimido[6,1-a]isoquinolin-4-one] | 101 to 500 nM |
| CC(C)CCn1cc(-c2ccc3c(c2)CCn2c-3cc(OCC3COCCO3)nc2=O)cn1 (stereo not drawn) [Compound 96, 2-([1,4]dioxan-2-ylmethoxy)-9-[1-(3-methyl-butyl)-1H-pyrazol-4-yl]-6,7-dihydro-pyrimido[6,1-a]isoquinolin-4-one] | 101 to 500 nM |
| O=c1nc(OC[C@H]2COCCO2)cc2n1CCc1cc(COC3CCOCC3)ccc1-2 [Compound 119, 2-((R)-1-[1,4]dioxan-2-ylmethoxy)-9-(tetrahydro-pyran-4-yloxymethyl)-6,7-dihydro-pyrimido[6,1-a]isoquinolin-4-one] | 101 to 500 nM |
| N#Cc1ccncc1-c1ccc2c(c1)CCn1c-2cc(OCC2COCCO2)nc1=O (stereo not drawn) [Compound 66, 3-[2-([1,4]dioxan-2-ylmethoxy)-4-oxo-6,7-dihydro-4H-pyrimido[6,1-a]isoquinolin-9-yl]-isonicotinonitrile] | 101 to 500 nM |
| COC(C#Cc1ccc2c(c1)CCn1c-2cc(OCC2COCCO2)nc1=O)C(C)C (stereo not drawn) [Compound 110, 2-([1,4]dioxan-2-ylmethoxy)-9-(3-methoxy-4-methyl-pent-1-ynyl)-6,7-dihydro-pyrimido[6,1-a]isoquinolin-4-one] | 101 to 500 nM |
| O=c1nc(OCC2COCCO2)cc2n1CCc1cc(OCc3ncc(-c4ccccc4)o3)ccc1-2 (stereo not drawn) [Compound 75, 2-([1,4]dioxan-2-ylmethoxy)-9-(5-phenyl-oxazol-2-ylmethoxy)-6,7-dihydro-pyrimido[6,1-a]isoquinolin-4-one] | 0.01 to 100 nM |
| O=c1nc(OCC2COCCO2)cc2n1CCc1cc(-c3ccc(N4CCCC4)nc3)ccc1-2 (stereo not drawn) [Compound 74, 2-([1,4]dioxan-2-ylmethoxy)-9-(6-pyrrolidin-1-yl-pyridin-3-yl)-6,7-dihydro-pyrimido[6,1-a]isoquinolin-4-one] | 0.01 to 100 nM |
| O=c1nc(OC[C@@H]2COCCO2)cc2n1CCc1cc(NCC3CCOCC3)ccc1-2 [Compound 154, 2-((S)-1-[1,4]dioxan-2-ylmethoxy)-9-[(tetrahydro-pyran-4-ylmethyl)-amino]-6,7-dihydro-pyrimido[6,1-a]isoquinolin-4-one] | 501 to 1000 nM |
| COc1ccc(OC)c(-c2ccc3c(c2)CCn2c-3cc(OCC3COCCO3)nc2=O)c1 (stereo not drawn) [Compound 67, 9-(2,5-dimethoxy-phenyl)-2-([1,4]dioxan-2-ylmethoxy)-6,7-dihydro-pyrimido[6,1-a]isoquinolin-4-one] | 0.01 to 100 nM |
| O=c1nc(OCC2COCCO2)cc2n1CCc1cc(C#CC3CCCC3)ccc1-2 (stereo not drawn) [Compound 81, 9-cyclopentylethynyl-2-([1,4]dioxan-2-ylmethoxy)-6,7-dihydro-pyrimido[6,1-a]isoquinolin-4-one] | 0.01 to 100 nM |
| NC(=O)c1cc(F)cc(-c2ccc3c(c2)CCn2c-3cc(OCC3COCCO3)nc2=O)c1 (stereo not drawn) [Compound 51, 3-[2-([1,4]dioxan-2-ylmethoxy)-4-oxo-6,7-dihydro-4H-pyrimido[6,1-a]isoquinolin-9-yl]-5-fluoro-benzamide] | 101 to 500 nM |
| O=c1nc(OCC2COCCO2)cc2n1CCc1cc(-c3ccncc3)ccc1-2 (stereo not drawn) [Compound 3, 2-([1,4]dioxan-2-ylmethoxy)-9-pyridin-4-yl-6,7-dihydro-pyrimido[6,1-a]isoquinolin-4-one] | 501 to 1000 nM |
| O=c1nc(OC[C@@H]2COCCO2)cc2n1CCc1cc(OCC3COC3)ccc1-2 [Compound 163, 2-((S)-1-[1,4]dioxan-2-ylmethoxy)-9-(oxetan-3-ylmethoxy)-6,7-dihydro-pyrimido[6,1-a]isoquinolin-4-one] | 0.01 to 100 nM |
| O=c1nc(OC[C@@H]2COCCO2)cc2n1CCc1cc(OCC3CC3)ccc1-2 [Compound 131, 9-cyclopropylmethoxy-2-((S)-1-[1,4]dioxan-2-ylmethoxy)-6,7-dihydro-pyrimido[6,1-a]isoquinolin-4-one] | 0.01 to 100 nM |
| CC(C)(C)c1cnc(COc2ccc3c(c2)CCn2c-3cc(OCC3COCCO3)nc2=O)o1 (stereo not drawn) [Compound 76, 9-(5-tert-butyl-oxazol-2-ylmethoxy)-2-([1,4]dioxan-2-ylmethoxy)-6,7-dihydro-pyrimido[6,1-a]isoquinolin-4-one] | 0.01 to 100 nM |

Results, then the molecule that gave them:

| IC50 | Compound |
| --- | --- |
| 101 to 500 nM | C=CCOc1ccc2c(c1)CCn1c-2cc(OC[C@@H]2COCCO2)nc1=O [Compound 118, 9-allyloxy-2-((S)-1-[1,4]dioxan-2-ylmethoxy)-6,7-dihydro-pyrimido[6,1-a]isoquinolin-4-one] |
| 501 to 1000 nM | CC1(COCc2ccc3c(c2)CCn2c-3cc(OC[C@@H]3COCCO3)nc2=O)COC1 [Compound 125, 2-((S)-1-[1,4]dioxan-2-ylmethoxy)-9-(3-methyl-oxetan-3-ylmethoxymethyl)-6,7-dihydro-pyrimido[6,1-a]isoquinolin-4-one] |
| 0.01 to 100 nM | O=c1nc(OC[C@@H]2COCCO2)cc2n1CCc1cc(CCC3(O)CCCC3)ccc1-2 [Compound 166, 2-((S)-1-[1,4]dioxan-2-ylmethoxy)-9-[2-(1-hydroxy-cyclopentyl)-ethyl]-6,7-dihydro-pyrimido[6,1-a]isoquinolin-4-one] |
| 0.01 to 100 nM | COC(CCc1ccc2c(c1)CCn1c-2cc(OC[C@@H]2COCCO2)nc1=O)C(C)C (stereo partly drawn) [Compound 142, 2-((S)-1-[1,4]dioxan-2-ylmethoxy)-9-(3-methoxy-4-methyl-pentyl)-6,7-dihydro-pyrimido[6,1-a]isoquinolin-4-one] |
| 101 to 500 nM | C=CCOc1ccc2c(c1)CCn1c-2cc(OC[C@H]2COCCO2)nc1=O [Compound 117, 9-allyloxy-2-((R)-1-[1,4]dioxan-2-ylmethoxy)-6,7-dihydro-pyrimido[6,1-a]isoquinolin-4-one] |
| 101 to 500 nM | CCC(O)CCc1ccc2c(c1)CCn1c-2cc(OC[C@@H]2COCCO2)nc1=O (stereo partly drawn) [Compound 157, 2-((S)-1-[1,4]dioxan-2-ylmethoxy)-9-(3-hydroxy-pentyl)-6,7-dihydro-pyrimido[6,1-a]isoquinolin-4-one] |
| 101 to 500 nM | CC(C)(C)CCCOc1ccc2c(c1)CCn1c-2cc(OC[C@@H]2COCCO2)nc1=O [Compound 141, 9-(4,4-dimethyl-pentyloxy)-2-((S)-1-[1,4]dioxan-2-ylmethoxy)-6,7-dihydro-pyrimido[6,1-a]isoquinolin-4-one] |
| 101 to 500 nM | CCC(O)(C#Cc1ccc2c(c1)CCn1c-2cc(OCC2COCCO2)nc1=O)CC (stereo not drawn) [Compound 91, 2-([1,4]dioxan-2-ylmethoxy)-9-(3-ethyl-3-hydroxy-pent-1-ynyl)-6,7-dihydro-pyrimido[6,1-a]isoquinolin-4-one] |
| 101 to 500 nM | CCCOCCOc1ccc2c(c1)CCn1c-2cc(OC[C@H]2COCCO2)nc1=O [Compound 172, 2-((R)-1-[1,4]Dioxan-2-ylmethoxy)-9-(2-propoxy-ethoxy)-6,7-dihydro-pyrimido[6,1-a]isoquinolin-4-one] |
| 101 to 500 nM | CCOCCOc1ccc2c(c1)CCn1c-2cc(OC[C@@H]2COCCO2)nc1=O [Compound 130, 2-((S)-1-[1,4]dioxan-2-ylmethoxy)-9-(2-ethoxy-ethoxy)-6,7-dihydro-pyrimido[6,1-a]isoquinolin-4-one] |
| 101 to 500 nM | O=c1nc(OC[C@@H]2COCCO2)cc2n1CCc1cc(CCCCO)ccc1-2 [Compound 151, 2-((S)-1-[1,4]dioxan-2-ylmethoxy)-9-(4-hydroxy-butyl)-6,7-dihydro-pyrimido[6,1-a]isoquinolin-4-one] |
| 0.01 to 100 nM | CC(C)(C)COCc1ccc2c(c1)CCn1c-2cc(OC[C@@H]2COCCO2)nc1=O [Compound 136, 9-(2,2-dimethyl-propoxymethyl)-2-((S)-1-[1,4]dioxan-2-ylmethoxy)-6,7-dihydro-pyrimido[6,1-a]isoquinolin-4-one] |
| 0.01 to 100 nM | COCCCc1ccc2c(c1)CCn1c-2cc(OC[C@@H]2COCCO2)nc1=O [Compound 165, 2-((S)-1-[1,4]dioxan-2-ylmethoxy)-9-(3-methoxy-propyl)-6,7-dihydro-pyrimido[6,1-a]isoquinolin-4-one] |
| 0.01 to 100 nM | CCC(O)(CC)CCc1ccc2c(c1)CCn1c-2cc(OC[C@@H]2COCCO2)nc1=O [Compound 155, 2-((S)-1-[1,4]dioxan-2-ylmethoxy)-9-(3-ethyl-3-hydroxy-pentyl)-6,7-dihydro-pyrimido[6,1-a]isoquinolin-4-one] |
| 101 to 500 nM | O=c1nc(OC[C@@H]2COCCO2)cc2n1CCc1cc(COC3COC3)ccc1-2 [Compound 124, 2-((S)-1-[1,4]dioxan-2-ylmethoxy)-9-(oxetan-3-yloxymethyl)-6,7-dihydro-pyrimido[6,1-a]isoquinolin-4-one] |
